Source: PubChem BioAssay AID1963421 (Molecular Pharmacology Branch, DTP, NCI, 2024)
pIC50: −log10 of the molar value.

Test system: 519858-162-T-J1-PDC complex spheroid growth, % test/control
Test: Anticancer human tumor 519858-162-T-J1-PDC patient-derived colon adenocarcinoma cell line growth inhibition [Asc]
Conditions: for pIC50: curve of first compound; for viability, T/C: stronger effect = lower value; active = viability on the fitted dose curve at most 10% of control; inactive = the rest
Summary of the method: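 Complex spheroids combining tumor cells with HUVEC endothelial cells and human MSCs, at 37 degrees C, 5% CO2; agents tested alone or combined, half-log dilutions from at or near clinical Cmax, or 10 microM if Cmax unknown.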

[1] = second compound 0.0316 µM, first compound 0.0316 µM
[2] = second compound 0.0316 µM, first compound 0.1 µM
[3] = second compound 0.1 µM, first compound 0.0316 µM
[4] = second compound 0.1 µM, first compound 0.1 µM
[5] = second compound 0.316 µM, first compound 0.0316 µM
[6] = second compound 0.316 µM, first compound 0.1 µM
[7] = second compound 1 µM, first compound 0.0316 µM
[8] = second compound 1 µM, first compound 0.1 µM
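Note: seven day drug exposure begun three days after spheroid seeding.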
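Throughout, for viability, T/C: 100% = DMSO vehicle wells and lower values mean less viable spheroid.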

C#Cc1c(F)ccc2cc(O)cc(-c3ncc4c(N5CC6CCC(C5)N6)nc(OCC56CCCN5CC(F)C6)nc4c3F)c12 (centres undefined) + CNC(C)C(=O)NC1CN(S(=O)(=O)c2cccc(S(=O)(=O)N3CCC4CCC(C(=O)NC(c5ccccc5)c5ccccc5)N4C(=O)C(NC(=O)C(C)NC)C3)c2)CCC2CCC(C(=O)NC(c3ccccc3)c3ccccc3)N2C1=O
inactive: viability, T/C (second compound 0.00316 µM, first compound 0.0316 µM) 138% | viability, T/C (second compound 0.00316 µM, first compound 0.1 µM) 111% | viability, T/C (second compound 0.00316 µM, first compound 0.316 µM) 99.4% | viability, T/C (second compound 0.00316 µM, first compound 1 µM) 100% | viability, T/C (second compound 0.00316 µM, first compound 3.16 µM) 82.1% | viability, T/C (second compound 0.00316 µM, first compound 10 µM) 72.1% | viability, T/C (second compound 0.01 µM, first compound 0.0316 µM) 97.8% | viability, T/C (second compound 0.01 µM, first compound 0.1 µM) 91.2% | viability, T/C (second compound 0.01 µM, first compound 0.316 µM) 93.6% | viability, T/C (second compound 0.01 µM, first compound 1 µM) 86.1% | viability, T/C (second compound 0.01 µM, first compound 3.16 µM) 81.2% | viability, T/C (second compound 0.01 µM, first compound 10 µM) 77.3% | viability, T/C [1] 96.5% | viability, T/C [2] 82.4% | viability, T/C (second compound 0.0316 µM, first compound 0.316 µM) 86.3% | viability, T/C (second compound 0.0316 µM, first compound 1 µM) 102% | viability, T/C (second compound 0.0316 µM, first compound 3.16 µM) 75.2% | viability, T/C (second compound 0.0316 µM, first compound 10 µM) 105% | viability, T/C [3] 123% | viability, T/C [4] 123% | viability, T/C (second compound 0.1 µM, first compound 0.316 µM) 117% | viability, T/C (second compound 0.1 µM, first compound 1 µM) 97.6% | viability, T/C (second compound 0.1 µM, first compound 3.16 µM) 88.1% | viability, T/C (second compound 0.1 µM, first compound 10 µM) 94.9% | viability, T/C [5] 78.8% | viability, T/C [6] 97.6% | viability, T/C (second compound 0.316 µM, first compound 0.316 µM) 111% | viability, T/C (second compound 0.316 µM, first compound 1 µM) 115% | viability, T/C (second compound 0.316 µM, first compound 3.16 µM) 87.8% | viability, T/C (second compound 0.316 µM, first compound 10 µM) 92.2% | viability, T/C [7] 86.5% | viability, T/C [8] 93.2% | viability, T/C (second compound 1 µM, first compound 0.316 µM) 92.2% | viability, T/C (second compound 1 µM, first compound 1 µM) 77.9% | viability, T/C (second compound 1 µM, first compound 3.16 µM) 112% | viability, T/C (second compound 1 µM, first compound 10 µM) 106%
< 5.00: pIC50 (second compound 0.00316 µM) | pIC50 (second compound 0.01 µM) | pIC50 (second compound 0.0316 µM) | pIC50 (second compound 0.1 µM) | pIC50 (second compound 0.316 µM) | pIC50 (second compound 1 µM)

Cn1ncnc1[C@H]1c2n[nH]c(=O)c3cc(F)cc(c23)N[C@@H]1c1ccc(F)cc1 + Cc1c(S(C)(=O)=O)c(-c2cc(F)cc(N3CCN(c4ccc(NS(=O)(=O)c5ccc(NC(CCN6CCC(C(=O)OCCCP(=O)(O)O)CC6)CSc6ccccc6)c(S(=O)(=O)C(F)(F)F)c5)cc4)CC3)c2)c(-c2ccc(Cl)cc2)n1C(C)C
7.00: pIC50 (second compound 10 µM)
< 7.00: pIC50 (second compound 0.0316 µM) | pIC50 (second compound 0.1 µM) | pIC50 (second compound 0.316 µM) | pIC50 (second compound 1 µM) | pIC50 (second compound 3.16 µM)
inactive: viability, T/C (second compound 0.0316 µM, first compound 0.000316 µM) 119% | viability, T/C (second compound 0.0316 µM, first compound 0.001 µM) 120% | viability, T/C (second compound 0.0316 µM, first compound 0.00316 µM) 73% | viability, T/C (second compound 0.0316 µM, first compound 0.01 µM) 100% | viability, T/C [1] 69% | viability, T/C [2] 95.4% | viability, T/C (second compound 0.1 µM, first compound 0.000316 µM) 121% | viability, T/C (second compound 0.1 µM, first compound 0.001 µM) 78.9% | viability, T/C (second compound 0.1 µM, first compound 0.00316 µM) 85.8% | viability, T/C (second compound 0.1 µM, first compound 0.01 µM) 123% | viability, T/C [3] 76.6% | viability, T/C [4] 54.9% | viability, T/C (second compound 0.316 µM, first compound 0.000316 µM) 115% | viability, T/C (second compound 0.316 µM, first compound 0.001 µM) 101% | viability, T/C (second compound 0.316 µM, first compound 0.00316 µM) 61.3% | viability, T/C (second compound 0.316 µM, first compound 0.01 µM) 92.9% | viability, T/C [5] 83.7% | viability, T/C [6] 89.4% | viability, T/C (second compound 1 µM, first compound 0.000316 µM) 88.8% | viability, T/C (second compound 1 µM, first compound 0.001 µM) 76.5% | viability, T/C (second compound 1 µM, first compound 0.00316 µM) 131% | viability, T/C (second compound 1 µM, first compound 0.01 µM) 60.8% | viability, T/C [7] 74.6% | viability, T/C [8] 90.5% | viability, T/C (second compound 3.16 µM, first compound 0.000316 µM) 104% | viability, T/C (second compound 3.16 µM, first compound 0.001 µM) 87.1% | viability, T/C (second compound 3.16 µM, first compound 0.00316 µM) 83.7% | viability, T/C (second compound 3.16 µM, first compound 0.01 µM) 75.2% | viability, T/C (second compound 3.16 µM, first compound 0.0316 µM) 113% | viability, T/C (second compound 3.16 µM, first compound 0.1 µM) 79.1% | viability, T/C (second compound 10 µM, first compound 0.000316 µM) 69.5% | viability, T/C (second compound 10 µM, first compound 0.001 µM) 95.7% | viability, T/C (second compound 10 µM, first compound 0.00316 µM) 63.2% | viability, T/C (second compound 10 µM, first compound 0.01 µM) 49.6% | viability, T/C (second compound 10 µM, first compound 0.0316 µM) 61.3% | viability, T/C (second compound 10 µM, first compound 0.1 µM) 61.4%
